# Measurements from publication PMC5681660, “Reduced hepatitis B and D viral entry using clinically applied drugs as novel inhibitors of the bile acid transporter NTCP” (Scientific Reports, 2017).
# Where a name gives a salt, the structure may show the parent alone. Read-outs that look alike come from different tables or passages of the source.
# Tests used:
# human NTCP [1] = molecular target: T1, human NTCP (Homo sapiens, UniProt Q14973); assay: Screening taurocholate uptake assay (96-well, [14C]taurocholate, 10 µM drug)
# T1 sequence (Q14973 1-349): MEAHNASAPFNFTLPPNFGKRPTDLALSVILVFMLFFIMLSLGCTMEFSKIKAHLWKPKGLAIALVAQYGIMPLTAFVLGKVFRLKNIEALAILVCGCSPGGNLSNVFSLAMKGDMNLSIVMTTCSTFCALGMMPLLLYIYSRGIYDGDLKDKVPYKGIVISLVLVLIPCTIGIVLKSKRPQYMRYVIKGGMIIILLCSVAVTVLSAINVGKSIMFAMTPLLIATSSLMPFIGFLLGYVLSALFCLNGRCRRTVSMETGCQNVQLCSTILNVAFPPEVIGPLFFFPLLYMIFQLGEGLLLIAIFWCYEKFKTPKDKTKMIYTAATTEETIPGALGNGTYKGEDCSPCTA
# human NTCP [2] = molecular target: T1, human NTCP; assay: Screening fluorescent competitive Myrcludex B-FITC binding assay (96-well, 10 µM drug)
# [3] = combined ranking from functional and binding screening assays
# [4] = screen, 10 µM drug, taurocholate uptake
# [5] = screen, 10 µM drug, Myrcludex B-FITC binding
# [6] = Prestwick library screen, 10 µM drug, B-score of taurocholate uptake
# [7] = combined ranking from functional and binding assay B-scores
# [8] = Prestwick library screen, 10 µM drug, B-score of Myrcludex B-FITC binding
# [9] = Prestwick library screen, taurocholate uptake, 10 µM drug
# [10] = ranking score beside the functional and binding assay B-scores of the screen
# [11] = Prestwick library screen, Myrcludex B-FITC binding, 10 µM drug
smiles,measurement,setting,value
COC(=O)C1=C(C)NC(C)=C(C(=O)O[C@@H]2CCCN(Cc3ccccc3)C2)[C@@H]1c1cccc([N+](=O)[O-])c1.Cl (racemic) [Benidipine hydrochloride],Ranking score,human NTCP [1]; [3],426.727
same,B-score functional assay,human NTCP [1]; [4],-0.759
same,B-score binding assay,human NTCP [2]; [5],-0.032
"CC(C)(S)C(N)C(=O)O (racemic) [D,L-Penicillamine]",B-score functional assay,human NTCP [1]; [6],0.176
same,Ranking score,human NTCP [1]; [7],845.872
same,B-score binding assay,human NTCP [2]; [8],0.477
"OCC(O)CN1CCN(c2ccccc2)CC1 (racemic) [Dropropizine (R,S)]",B-score functional assay,human NTCP [1]; [9],0.232
same,Ranking score,human NTCP [1]; [10],761.407
same,B-score binding assay,human NTCP [2]; [11],0.054
"COCCc1ccc(OCC(O)CNC(C)C)cc1.COCCc1ccc(OCC(O)CNC(C)C)cc1.O=C(O)C(O)C(O)C(=O)O (racemic) [Metoprolol-(+,-) (+)-tartrate salt]",Ranking score,human NTCP [1]; [3],295.567
same,B-score functional assay,human NTCP [1]; [4],-0.726
same,B-score binding assay,human NTCP [2]; [5],-0.835
"CN1CCC2(C)c3cc(O)ccc3N(C)C12.O=C(O)/C=C/C(=O)O (single isomer, unassigned; (-)) [(-)-Eseroline fumarate salt]",B-score functional assay,human NTCP [1]; [9],0.19
same,Ranking score,human NTCP [1]; [10],803.481
same,B-score binding assay,human NTCP [2]; [11],0.233
"CC(C)NCC(O)c1ccc(O)c(O)c1.Cl (single isomer, unassigned; (-)) [(-)-Isoproterenol hydrochloride]",B-score functional assay,human NTCP [1]; [6],0.061
same,Ranking score,human NTCP [1]; [7],845.999
same,B-score binding assay,human NTCP [2]; [8],0.852
Clc1cnccn1 [2-Chloropyrazine],B-score functional assay,human NTCP [1]; [9],1.648
same,Ranking score,human NTCP [1]; [10],812.047
same,B-score binding assay,human NTCP [2]; [11],-0.068
C[C@]12CC[C@@H](O)C[C@H]1CC[C@@H]1[C@@H]2CC[C@]2(C)C(=O)CC[C@@H]12 [3-alpha-Hydroxy-5-beta-androstan-17-one],B-score functional assay,human NTCP [1],-2.764
same,Ranking score,human NTCP [1],235.83
same,B-score binding assay,human NTCP [2],0.051
Nc1ccc(C(=O)O)c(O)c1 [4-aminosalicylic acid],Ranking score,human NTCP [1]; [3],360.074
same,B-score functional assay,human NTCP [1]; [4],-0.405
same,B-score binding assay,human NTCP [2]; [5],-0.683
O=c1[nH]cc(F)c(=O)[nH]1 [5-fluorouracil],Ranking score,human NTCP [1]; [3],327.242
same,B-score functional assay,human NTCP [1]; [4],-0.016
same,B-score binding assay,human NTCP [2]; [5],-1.388
c1coc(CNc2ncnc3nc[nH]c23)c1 [6-Furfurylaminopurine],B-score functional assay,human NTCP [1]; [9],2.357
same,Ranking score,human NTCP [1]; [10],696.25
same,B-score binding assay,human NTCP [2]; [11],-0.434
CC(C)NC[C@@H](O)c1ccc(O)c(O)c1.O=C(O)C(O)C(O)C(=O)O [(+)-Isoproterenol (+)-bitartrate salt],B-score functional assay,human NTCP [1]; [9],2.072
same,Ranking score,human NTCP [1]; [10],708.011
same,B-score binding assay,human NTCP [2]; [11],-0.368
Nc1nc(=O)n([C@@H]2CS[C@H](CO)O2)cc1F [(-)-Emtricitabine],B-score functional assay,human NTCP [1]; [6],1.373
same,Ranking score,human NTCP [1]; [7],1006
same,B-score binding assay,human NTCP [2]; [8],0.464
C[C@@]12N[C@@H](Cc3ccccc31)c1ccccc12.O=C(O)/C=C\C(=O)O [(-)-MK 801 hydrogen maleate],B-score functional assay,human NTCP [1]; [9],-0.004
same,Ranking score,human NTCP [1]; [10],690.814
same,B-score binding assay,human NTCP [2]; [11],0.115
COc1ccc2cc([C@@H](C)C(=O)[O-])ccc2c1.[Na+] [(R) -Naproxen sodium salt],B-score functional assay,human NTCP [1],-0.341
same,Ranking score,human NTCP [1],667.638
same,B-score binding assay,human NTCP [2],0.921
CC(C)NC[C@@H](O)COc1ccc(CC(N)=O)cc1 [(R)-(+)-Atenolol],B-score functional assay,human NTCP [1]; [9],0.006
same,Ranking score,human NTCP [1]; [10],655.981
same,B-score binding assay,human NTCP [2]; [11],0.009
CNCC[C@@H](Oc1cccc2ccccc12)c1cccs1.Cl [(R)-Duloxetine hydrochloride],B-score functional assay,human NTCP [1],1.079
same,Ranking score,human NTCP [1],610.37
same,B-score binding assay,human NTCP [2],-0.619
CC(C)NC[C@@H](O)COc1cccc2ccccc12.Cl [(R)-Propranolol hydrochloride],B-score functional assay,human NTCP [1],1.016
same,Ranking score,human NTCP [1],935.855
same,B-score binding assay,human NTCP [2],0.252
CC(C)NC[C@H](O)COc1ccc(CC(N)=O)cc1 [(S)-(-)-Atenolol],Ranking score,human NTCP [1]; [3],412.97
same,B-score functional assay,human NTCP [1]; [4],-0.386
same,B-score binding assay,human NTCP [2]; [5],-0.394
C[C@H]1O[C@H](O[C@H]2[C@H](O)[C@@H](O)[C@@H](O[C@H]3[C@H](O)[C@@H](O)C(O)O[C@@H]3CO)O[C@@H]2CO)[C@H](O)[C@@H](O)[C@@H]1N[C@H]1C=C(CO)[C@@H](O)[C@H](O)[C@H]1O (stereo partly drawn) [Acarbose],B-score functional assay,human NTCP [1]; [9],1.632
same,Ranking score,human NTCP [1]; [10],792.136
same,B-score binding assay,human NTCP [2]; [11],-0.109
CCCC(=O)Nc1ccc(OCC(O)CNC(C)C)c(C(C)=O)c1 (stereo not drawn) [Acebutolol hydrochloride],B-score functional assay,human NTCP [1]; [6],1.681
same,Ranking score,human NTCP [1]; [7],904.34
same,B-score binding assay,human NTCP [2]; [8],0.049
O=C(O)COC(=O)Cc1ccccc1Nc1c(Cl)cccc1Cl [Aceclofenac],Ranking score,human NTCP [1]; [3],377.221
same,B-score functional assay,human NTCP [1]; [4],-0.535
same,B-score binding assay,human NTCP [2]; [5],-0.456
Cn1c(=O)c2c(ncn2CC(=O)O)n(C)c1=O [Acefylline],B-score functional assay,human NTCP [1]; [6],0.41
same,Ranking score,human NTCP [1]; [7],910.022
same,B-score binding assay,human NTCP [2]; [8],0.607
COc1ccc2c(c1)c(CC(=O)OCC(=O)O)c(C)n2C(=O)c1ccc(Cl)cc1 [Acemetacin],B-score functional assay,human NTCP [1]; [9],0.011
same,Ranking score,human NTCP [1]; [10],813.791
same,B-score binding assay,human NTCP [2]; [11],0.865
CC(=O)CC(c1ccc([N+](=O)[O-])cc1)c1c(O)c2ccccc2oc1=O (stereo not drawn) [Acenocoumarol],B-score functional assay,human NTCP [1]; [6],0.873
same,Ranking score,human NTCP [1]; [7],950.096
same,B-score binding assay,human NTCP [2]; [8],0.383
CC(=O)Nc1nnc(S(N)(=O)=O)s1 [Acetazolamide],B-score functional assay,human NTCP [1]; [9],0.532
same,Ranking score,human NTCP [1]; [10],696.956
same,B-score binding assay,human NTCP [2]; [11],-0.137
CC(=O)c1ccc(S(=O)(=O)NC(=O)NC2CCCCC2)cc1 [Acetohexamide],B-score functional assay,human NTCP [1]; [6],0.057
same,Ranking score,human NTCP [1]; [7],875.07
same,B-score binding assay,human NTCP [2]; [8],1.192
CC(=O)c1ccc2c(c1)N(CCCN(C)C)c1ccccc1S2.O=C(O)/C=C\C(=O)O [Acetopromazine maleate salt],Ranking score,human NTCP [1]; [3],331.723
same,B-score functional assay,human NTCP [1]; [4],0.92
same,B-score binding assay,human NTCP [2]; [5],-2.054
CC(=O)Oc1ccccc1C(=O)Oc1ccccc1C(=O)O [Acetylsalicylsalicylic acid],B-score functional assay,human NTCP [1]; [9],0.347
same,Ranking score,human NTCP [1]; [10],734.743
same,B-score binding assay,human NTCP [2]; [11],-0.007
Cc1cnc(C(=O)O)c[n+]1[O-] [Acipimox],B-score functional assay,human NTCP [1]; [6],0.91
same,Ranking score,human NTCP [1]; [7],894.262
same,B-score binding assay,human NTCP [2]; [8],0.142
COc1cc(C)c(/C=C/C(C)=C/C=C/C(C)=C/C(=O)O)c(C)c1C [Acitretin],Ranking score,human NTCP [1]; [3],302.82
same,B-score functional assay,human NTCP [1]; [4],0.046
same,B-score binding assay,human NTCP [2]; [5],-1.766
CC(=O)Nc1ccc(CC(=O)O)cc1 [Actarit],B-score functional assay,human NTCP [1]; [9],-0.304
same,Ranking score,human NTCP [1]; [10],719.277
same,B-score binding assay,human NTCP [2]; [11],1.648
Nc1nc2c(ncn2COCCO)c(=O)[nH]1 [Acyclovir],B-score functional assay,human NTCP [1]; [9],0.026
same,Ranking score,human NTCP [1]; [10],658.696
same,B-score binding assay,human NTCP [2]; [11],0
NC12CC3CC(CC(C3)C1)C2.O=C(O)/C=C/C(=O)O [Adamantamine fumarate],B-score functional assay,human NTCP [1]; [9],-0.004
same,Ranking score,human NTCP [1]; [10],748.28
same,B-score binding assay,human NTCP [2]; [11],0.399
Nc1ncnc2c1ncn2[C@@H]1O[C@H](COP(=O)(O)O)[C@@H](O)[C@H]1O.O [Adenosine 5'-monophosphate monohydrate],B-score functional assay,human NTCP [1]; [6],0.641
same,Ranking score,human NTCP [1]; [7],1091.98
same,B-score binding assay,human NTCP [2]; [8],2.827
